Data reported in US7786098B2, “Fluoroalkoxycombretastatin derivatives, method for producing the same and use thereof” (Zhejiang Dade Pharmaceutical Group Co. Ltd., priority 2006, dated 2010).
Where two headings read alike, the source gives them in different places.

Legend:
[1] = system: HT-29 human colon cancer cell; test: In vitro antitumor activity evaluation (SRB/MTT, 72 hours), HT-29; assay type: cell-based; settings: Logit model, read-out: IC50 Colon cancer HT29
Description: (§1) The tumor cell cultured in vitro being administrated with fluoroalkoxycombretastatin for 72 hours, the MTT and SRB assays was used to evaluate its inhibition of tumor proliferation.
(§2) Cell groups: H460 human lung cancer cell, SGC7901: human stomach cancer cell, HT-29 human colon cancer cell, Bel-7402 human liver cancer cell.
(§3) Experiment design: cells were warm-cultured with the compounds in different concentrations (100, 10, 1, 0.1, 0.01, 0.001 μM) for 72 hours. SRB assay was used to evaluate the inhibition degree of the compounds to cell proliferation. The inhibition rate was calculated, and IC50 was calculated by using Logit model according to the inhibition rate. And the antitumor activity of compounds in vitro was compared.
(§4) The inhibition rate was expressed using the following equation: Inhibition rate (%)=[(average OD value of control group−average OD value of experimental group)/average OD value of control group]×100%.

[2] = system: H460 human lung cancer cell; test: In vitro antitumor activity evaluation (SRB/MTT, 72 hours), H460; assay type: cell-based; settings: Logit model, read-out: IC50 Non-small cell lung cancer H460
Description: as §1, §2, §3, §4

[3] = system: SGC7901 human stomach cancer cell; test: In vitro antitumor activity evaluation (SRB/MTT, 72 hours), SGC-7901; assay type: cell-based; settings: Logit model
Description: as §1, §2, §3, §4

[4] = system: human umbilical vein endothelial cells (HUVEC); test: In vitro neovascular inhibition evaluation; assay type: cell-based; settings: same method as Example 15 (72 hours)
Description: as §1, §3, §4
Anti-angiogenesis effects of fluoroalkoxycombretastatins were assessed in human umbilical vein endothelial cells (HUVEC) using the same method in Example 15.

[5] = system: Bel-7402 human liver cancer cell; test: In vitro antitumor activity evaluation (SRB/MTT, 72 hours), Bel-7402; assay type: cell-based; settings: Logit model
Description: as §1, §2, §3, §4

tubulin = settings: U.S. Pat. No. 5,561,122; WO 9935150; cited from earlier work
tumor = settings: within 4 to 6 hours after the treatment of CA-4, cancer patients; cited from earlier work
[6] = Homo sapiens, NCI-H460, SRB assay
[7] = Homo sapiens, SGC-7901, SRB assay
[8] = Homo sapiens, Bel-7402, SRB assay

**Q.** What does the source list for `COc1cc(/C=C\c2ccc(OCC(F)(F)F)c(O)c2)cc(OC)c1OC` [DD8031, (Z)-1-(3,4,5-trimethoxyphenyl)-2-(3′-hydroxy-4′-trifluoroethoxyphenyl)-ethene]?
**A.** IC50 ([1]; Homo sapiens, HT-29, SRB assay): 0.079 µM; IC50 [2, 6]: 0.005 µM; IC50 [3, 7]: 0.005 µM; IC50 ([4]; Homo sapiens, HUVEC): 0.001 µM; IC50 [5, 8]: 0.3 µM

**Q.** With `COc1ccc(/C=C\c2cc(OC)c(OC)c(OC)c2)c(O)c1O` [CA-1, combretastatin A-1] as the molecule, how does the “inhibition of tubulin polymerization” value (tubulin) read?
**A.** exceptionally strong inhibitors of tubulin polymerization

**Q.** What does the source list for `COc1cc(/C=C\c2ccc(OCC(F)(F)F)c(N)c2)cc(OC)c1OC` [DD8041, (Z)-1-(3,4,5-trimethoxyphenyl)-2-(3′-amino-4′-trifluoroethoxyphenyl)-ethene]?
**A.** IC50 ([1]; Homo sapiens, HT-29, SRB assay): 0.068 µM; IC50 [2, 6]: 0.005 µM; IC50 [3, 7]: 0.003 µM; IC50 ([4]; Homo sapiens, HUVEC): 0.001 µM; IC50 [5, 8]: 0.28 µM

**Q.** Which results are given for `COc1cc(/C=C\c2ccc(OC(F)F)c(N)c2)cc(OC)c1OC` [DD8021, (Z)-1-(3,4,5-trimethoxyphenyl)-2-(3′-amino-4′-difluoromethoxyphenyl)-ethene]?
**A.** IC50 ([1]; Homo sapiens, HT-29, SRB assay): 2.25 µM; IC50 [2, 6]: 0.036 µM; IC50 [3, 7]: 0.018 µM; IC50 ([4]; Homo sapiens, HUVEC): 0.002 µM; IC50 [5, 8]: 0.83 µM

**Q.** Which IC50 ([1]; Homo sapiens, HT-29, SRB assay) does the source give for `COc1cc(/C=C\c2ccc(OC(F)F)c(O)c2)cc(OC)c1OC` [DD8011, (Z)-1-(3,4,5-trimethoxyphenyl)-2-(3′-hydroxy-4′-difluoromethoxyphenyl)-ethene] here?
**A.** 3 µM

**Q.** And the IC50 [2, 6]?
**A.** 0.044 µM

**Q.** And the IC50 [3, 7]?
**A.** 0.022 µM

**Q.** What about the IC50 ([4]; Homo sapiens, HUVEC) of the same molecule?
**A.** 0.002 µM

**Q.** And the IC50 [5, 8]?
**A.** 0.92 µM

**Q.** Which results are given for `COc1ccc(/C=C\c2cc(OC)c(OC)c(OC)c2)cc1O` [CA-4, combretastatin A-4, reference compound]?
**A.** IC50 ([1]; SRB assay): 2.38 µM; IC50 ([2]; SRB assay): 0.027 µM; IC50 ([3]; SRB assay): 0.01 µM; inhibition of tubulin polymerization (tubulin): exceptionally strong inhibitors of tubulin polymerization; IC50 [4]: 0.003 µM; IC50 ([5]; SRB assay): 0.75 µM; blood flow (tumor): decreased obviously; tumor cells died (tumor): more than 95%
